Measured values reported in patent US20230093099A1, “COMPOUNDS AND METHODS OF TREATING CANCERS” (CULLGEN (SHANGHAI), INC., priority 2019, published 2023).

System: RS4;11 cells
Assay: Cell viability assay (CellTiter-Glo) in RS4;11 cells
Format: cell-based
Details: Homo sapiens, 72 h; RS4;11 cells; cell viability, 3 days, CellTiter-Glo; read-out: IC50
How it was run: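 RS4;11 cells seeded at 5000 per well, exposed for 3 days to 8- or 12-point 3-fold serial dilutions. Viability read by CellTiter-Glo luminescence; IC50 fitted by nonlinear least-squares regression.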

IC50 | SMILES
> 10 µM | Cc1cnc(Nc2ccc(N3CCN(C(=O)CCCCCNc4ccc5c(c4)C(=O)N(C4CCC(=O)NC4=O)C5=O)CC3)cc2)nc1Nc1cccc(S(=O)(=O)NC(C)(C)C)c1 (stereo not drawn) [JA-229, N-(tert-butyl)-3-((2-((4-(4-(6-((2-(2,6-dioxopiperidin-3-yl)-1,3-dioxoisoindolin-5-yl)amino)hexanoyl)piperazin-1-yl)phenyl)amino)-5-methylpyrimidin-4-yl)amino)benzenesulfonamide]
1.04 µM | Cc1cnc(Nc2ccc(N3CCN(CC(=O)NCCOCCOCCOCCOCCOCCNc4ccc5c(c4)C(=O)N(C4CCC(=O)NC4=O)C5=O)CC3)cc2)nc1Nc1cccc(S(=O)(=O)NC(C)(C)C)c1 (stereo not drawn) [JA-241, 2-(4-(4-((4-((3-(N-(tert-butyl)sulfamoyl)phenyl)amino)-5-methylpyrimidin-2-yl)amino)phenyl)piperazin-1-yl)-N-(17-((2-(2,6-dioxopiperidin-3-yl)-1,3-dioxoisoindolin-5-yl)amino)-3,6,9,12,15-pentaoxaheptadecyl)acetamide]
> 10 µM | Cc1ncsc1-c1ccc(CNC(=O)[C@@H]2C[C@@H](O)CN2C(=O)[C@@H](NC(=O)CCOCCOCCNC(=O)CN2CCN(c3ccc(Nc4nc5cccc(-c6ccc(S(C)(=O)=O)cc6)n5n4)cc3)CC2)C(C)(C)C)cc1 [JA-135, (2S,4R)-1-((S)-14-(tert-Butyl)-1-(4-(4-((5-(4-(methylsulfonyl)phenyl)-[1,2,4]triazolo[1,5-a]pyridin-2-yl)amino)phenyl)piperazin-1-yl)-2,12-dioxo-6,9-dioxa-3,13-diazapentadecan-15-oyl)-4-hydroxy-N-(4-(4-methylthiazol-5-yl)benzyl)pyrrolidine-2-carboxamide]
> 10 µM | Cc1ncsc1-c1ccc(CNC(=O)[C@@H]2C[C@@H](O)CN2C(=O)[C@@H](NC(=O)CCCNC(=O)CN2CCC(n3cc(-c4cnc5cccc(-c6cc(F)c(CN7CCOCC7)c(F)c6)c5n4)cn3)CC2)C(C)(C)C)cc1 [JA-152, (2S,4R)-1-((S)-2-(4-(2-(4-(4-(8-(3,5-Difluoro-4-(morpholinomethyl)phenyl)quinoxalin-2-yl)-1H-pyrazol-1-yl)piperidin-1-yl)acetamido)butanamido)-3,3-dimethylbutanoyl)-4-hydroxy-N-(4-(4-methylthiazol-5-yl)benzyl)pyrrolidine-2-carboxamide]
> 10 µM | CS(=O)(=O)c1ccc(-c2cccc3nc(Nc4ccc(N5CCN(CC(=O)NCCCCCCNc6ccc7c(c6)C(=O)N(C6CCC(=O)NC6=O)C7=O)CC5)cc4)nn23)cc1 (stereo not drawn) [JA-215, N-(6-((2-(2,6-dioxopiperidin-3-yl)-1,3-dioxoisoindolin-5-yl)amino)hexyl)-2-(4-(4-((5-(4-(methylsulfonyl)phenyl)-[1,2,4]triazolo[1,5-a]pyridin-2-yl)amino)phenyl)piperazin-1-yl)acetamide]
> 10 µM | Cc1ncsc1-c1ccc(CNC(=O)[C@@H]2C[C@@H](O)CN2C(=O)[C@@H](NC(=O)CCOCCOCCNC(=O)CN2CCC(n3cc(-c4cnc5cccc(-c6cc(F)c(CN7CCOCC7)c(F)c6)c5n4)cn3)CC2)C(C)(C)C)cc1 [JA-162, (2S,4R)-1-((S)-14-(tert-Butyl)-1-(4-(4-(8-(3,5-difluoro-4-(morpholinomethyl)phenyl)quinoxalin-2-yl)-1H-pyrazol-1-yl)piperidin-1-yl)-2,12-dioxo-6,9-dioxa-3,13-diazapentadecan-15-oyl)-4-hydroxy-N-(4-(4-methylthiazol-5-yl)benzyl)pyrrolidine-2-carboxamide]
> 10 µM | Cc1ncsc1-c1ccc(CNC(=O)[C@@H]2C[C@@H](O)CN2C(=O)[C@@H](NC(=O)COCCOCCOCCNC(=O)CN2CCC(n3cc(-c4cnc5cccc(-c6cc(F)c(CN7CCOCC7)c(F)c6)c5n4)cn3)CC2)C(C)(C)C)cc1 [JA-157, (2S,4R)-1-((S)-2-(tert-Butyl)-17-(4-(4-(8-(3,5-Difluoro-4-(morpholinomethyl)phenyl)quinoxalin-2-yl)-1H-pyrazol-1-yl)piperidin-1-yl)-4,16-dioxo-6,9,12-trioxa-3,15-diazaheptadecanoyl)-4-hydroxy-N-(4-(4-methylthiazol-5-yl)benzyl)pyrrolidine-2-carboxamide]
0.181 µM | CS(=O)(=O)c1ccc(-c2cccc3nc(Nc4ccc(N5CCN(C(=O)CCCCC#Cc6ccc7c(c6)CN(C6CCC(=O)NC6=O)C7=O)CC5)cc4)nn23)cc1 (stereo not drawn) [JA-250, 3-(5-(7-(4-(4-((5-(4-(Methylsulfonyl)phenyl)-[1,2,4]triazolo[1,5-a]pyridin-2-yl)amino)phenyl)piperazin-1-yl)-7-oxohept-1-yn-1-yl)-1-oxoisoindolin-2-yl)piperidine-2,6-dione]
> 0.5 µM | CS(=O)(=O)c1ccc(-c2cccc3nc(Nc4ccc(N5CCN(C(=O)CCCCCn6c(=O)n(C7CCC(=O)NC7=O)c7ccccc76)CC5)cc4)nn23)cc1 (stereo not drawn) [JA-280, 3-(3-(6-(4-(4-((5-(4-(Methylsulfonyl)phenyl)-[1,2,4]triazolo[1,5-a]pyridin-2-yl)amino)phenyl)piperazin-1-yl)-6-oxohexyl)-2-oxo-2,3-dihydro-1H-benzo[d]imidazol-1-yl)piperidine-2,6-dione]
> 10 µM | Cc1ncsc1-c1ccc(CNC(=O)[C@@H]2C[C@@H](O)CN2C(=O)[C@@H](NC(=O)CCOCCNC(=O)CN2CCN(c3ccc(Nc4nc5cccc(-c6ccc(S(C)(=O)=O)cc6)n5n4)cc3)CC2)C(C)(C)C)cc1 [JA-136, (2S,4R)-1-((S)-3,3-Dimethyl-2-(3-(2-(2-(4-(4-((5-(4-(methylsulfonyl)phenyl)-[1,2,4]triazolo[1,5-a]pyridin-2-yl)amino)phenyl)piperazin-1-yl)acetamido)ethoxy)propanamido)butanoyl)-4-hydroxy-N-(4-(4-methylthiazol-5-yl)benzyl)pyrrolidine-2-carboxamide]
> 10 µM | CS(=O)(=O)c1ccc(-c2cccc3nc(Nc4ccc(N5CCN(CC(=O)NCCOCCNc6cccc7c6C(=O)N(C6CCC(=O)NC6=O)C7=O)CC5)cc4)nn23)cc1 (stereo not drawn) [JA-110, N-(2-(2-((2-(2,6-Dioxopiperidin-3-yl)-1,3-dioxoisoindolin-4-yl)amino)ethoxy)ethyl)-2-(4-(4-((5-(4-(methylsulfonyl)phenyl)-[1,2,4]triazolo[1,5-a]pyridin-2-yl)amino)phenyl)piperazin-1-yl)acetamide]
> 10 µM | CS(=O)(=O)c1ccc(-c2cccc3nc(Nc4ccc(N5CCN(C(=O)CCCCCCCNc6cccc7c6C(=O)N(C6CCC(=O)NC6=O)C7=O)CC5)cc4)nn23)cc1 (stereo not drawn) [JA-084, 2-(2,6-Dioxo-piperidin-3-yl)-4-[8-(4-{4-[5-(4-methanesulfonyl-phenyl)-[1,2,4]triazolo[1,5-a]pyridin-2-ylamino]-phenyl}-piperazin-1-yl)-8-oxo-octylamino]-isoindole-1,3-dione]
5.6 µM | Cc1cnc(Nc2ccc(N3CCN(CC(=O)NCCOCC(=O)N[C@H](C(=O)N4C[C@H](O)C[C@H]4C(=O)NCc4ccc(-c5scnc5C)cc4)C(C)(C)C)CC3)cc2)nc1Nc1cccc(S(=O)(=O)NC(C)(C)C)c1 [JA-217, (2S,4R)-1-((S)-2-(2-(2-(2-(4-(4-((4-((3-(N-(tert-butyl)sulfamoyl)phenyl)amino)-5-methylpyrimidin-2-yl)amino)phenyl)piperazin-1-yl)acetamido)ethoxy)acetamido)-3,3-dimethylbutanoyl)-4-hydroxy-N-(4-(4-methylthiazol-5-yl)benzyl)pyrrolidine-2-carboxamide]
2.64 µM | Cc1cnc(Nc2ccc(N3CCN(C(=O)CCOCCOCCOCCOCCOCCNc4ccc5c(c4)C(=O)N(C4CCC(=O)NC4=O)C5=O)CC3)cc2)nc1Nc1cccc(S(=O)(=O)NC(C)(C)C)c1 (stereo not drawn) [JA-236, N-(tert-butyl)-3-((2-((4-(4-(1-((2-(2,6-dioxopiperidin-3-yl)-1,3-dioxoisoindolin-5-yl)amino)-3,6,9,12,15-pentaoxaoctadecan-18-oyl)piperazin-1-yl)phenyl)amino)-5-methylpyrimidin-4-yl)amino)benzenesulfonamide]
0.479 µM | CS(=O)(=O)c1ccc(-c2cccc3nc(Nc4ccc(N5CCN(C(=O)CCOCCNc6cccc7c6C(=O)N(C6CCC(=O)NC6=O)C7=O)CC5)cc4)nn23)cc1 (stereo not drawn) [JA-079, 2-(2,6-Dioxo-piperidin-3-yl)-4-{2-[3-(4-{4-[5-(4-methanesulfonyl-phenyl)-[1,2,4]triazolo[1,5-a]pyridin-2-ylamino]-phenyl}-piperazin-1-yl)-3-oxo-propoxy]-ethylamino}-isoindole-1,3-dione]
3.04 µM | CS(=O)(=O)c1ccc(-c2cccc3nc(Nc4ccc(N5CCN(C(=O)CCCCNc6cccc7c6C(=O)N(C6CCC(=O)NC6=O)C7=O)CC5)cc4)nn23)cc1 (stereo not drawn) [JA-011, 2-(2,6-Dioxo-piperidin-3-yl)-4-[5-(4-{4-[5-(4-methanesulfonyl-phenyl)-[1,2,4]triazolo[1,5-a]pyridin-2-ylamino]-phenyl}-piperazin-1-yl)-5-oxo-pentylamino]-isoindole-1,3-dione]
> 10 µM | CS(=O)(=O)c1ccc(-c2cccc3nc(Nc4ccc(N5CCN(CC(=O)NCCCCCCNc6cccc7c6C(=O)N(C6CCC(=O)NC6=O)C7=O)CC5)cc4)nn23)cc1 (stereo not drawn) [JA-112, N-(6-((2-(2,6-Dioxopiperidin-3-yl)-1,3-dioxoisoindolin-4-yl)amino)hexyl)-2-(4-(4-((5-(4-(methylsulfonyl)phenyl)-[1,2,4]triazolo[1,5-a]pyridin-2-yl)amino)phenyl)piperazin-1-yl)acetamide]
> 10 µM | Cc1cnc(Nc2ccc(N3CCN(C(=O)CCCCCCC(=O)N[C@H](C(=O)N4C[C@H](O)C[C@H]4C(=O)NCc4ccc(-c5scnc5C)cc4)C(C)(C)C)CC3)cc2)nc1Nc1cccc(S(=O)(=O)NC(C)(C)C)c1 [JA-026, (2S,4R)-1-((S)-2-(8-(4-(4-((4-((3-(N-(tert-Butyl)sulfamoyl)phenyl)amino)-5-methylpyrimidin-2-yl)amino)phenyl)piperazin-1-yl)-8-oxooctanamido)-3,3-dimethylbutanoyl)-4-hydroxy-N-(4-(4-methylthiazol-5-yl)benzyl)pyrrolidine-2-carboxamide]
